Tests used:
[1] = system: beet armyworm; test: Field trial against beet armyworm on cabbage; format: in vivo, Laphygma exigua
Experimental: The trial was carried out in rain shelter area of experimental field of Wuhan vegetable research institute, the test crop is cabbage (variety: Jingfeng NO. 1). The dosage of the invention compound 1 (Example 11, 10% EC, same as below) are 75, 105, 150 g a.i./hm^2. and the comparative agent pyridalyl (10% EC, commercially available, same as below) is 105 g a.i./hm^2. The agent was applied on 9 Oct. 2011. The application tool is Linong 16HD-400 type backpack spray. Evenly spraying to whole cabbage which is in rosette stage was conducted. Beet armyworm is mainly larvae. The plot area is 25 m^2 and 4 replicates and randomized block arrangement were set. The amount of spray liquid is 750 L/hm^2. It was sunny and there was no wind, with the highest temperature of 28° C. and the lowest of 15° C. on the day of the application. Chosen 10 plants from each plot and scored the larvae at different instars at fixing time. The base number was investigated before treatment. The number of living larvae was counted after 1 day, 3 days, 7 days and 14 days respectively after application and control efficacy was calculated.
(§1) Calculation Method: Decrease rate of insects (%)=(the number of insects before application−the number of insects after application) the number of insects before application×100 Control efficacy (%)=(decrease rate of insects in treated area decrease rate of insects in blank comparative area)/(100−decrease rate of insects in blank comparative area)×100

[2] = system: diamond back moth; test: Insecticidal activity against diamond back moth in greenhouse (airbrush spraying of cabbage leaf discs); format: in vivo; conditions: Plutella xylostella, foliar, 72 h, parallel determination, read-out: Mortality of diamond back moth (%)
Experimental: (§2) Compounds were dissolved in mixed solvent (acetone:methanol=1:1), and diluted to required concentration with water containing 0.1% of tweed 80.
(§3) The method of spraying by airbrush: The cabbage leaves were made into plates of 2 cm diameter by use of punch. A test solution (0.5 ml) was sprayed by airbrush at the pressure of 0.7 kg/cm^2 to both sides of every plate. 10 Second instar larvae were put into the petri-dishes after the leaf disc air-dried and 3 replicates were set for each treatment. Then the insects were maintained in observation room (25° C., 60˜70% R.H.), Scores were conducted and mortalities were calculated after 72 h.

[3] = system: cabbage butterfly (Pierisrapae Linne); test: Field trial against cabbage butterfly; format: in vivo
Experimental: as §1
The trial was carried out in a farmer's vegetable field in Xiangcheng District Suzhou City. The variety of the cabbage is Xinxia 50. The dosage of the compound 1 are 75, 105, 150 g a.i./hm^2 and the comparative agent pyridalyl is 105 g a.i./hm^2. The agent was applied on 26 May 2011. The application tool is Singaporean Linong HD-400 type backpack spray. Evenly spraying to whole cabbage which is at vegetative growth phase was conducted, Cabbage butterfly is at a peak time of 1-3 instars of larvae. The plot area is 15 m^2, 4 replicates and randomized block arrangement were set. The amount of spray liquid is 750 L/hm^2. It was from sunny to cloudy with the highest temperature of 22.6° C., and the lowest of 17.8° C. on the day of the application of the spray. Chosen 10 plants from each plot and scored the larvae at different instars at fixing time. The base number was investigated before treatment. The number of living larvae was counted after 1 day, 4 days, 7 days and 12 days respectively after application and control efficacy was calculated.
Calculation method: the same as Example 13.

[4] = system: armyworm; test: Insecticidal activity against armyworm in greenhouse (airbrush spraying of corn leaf discs); format: in vivo; conditions: Mythimna separata, foliar, 72 h, parallel determination
Experimental: as §2
as §3, with “corn” for “cabbage”, “Petri-dishes” for “petri-dishes”, “thr” for “for”, “R.H.).” for “R.H.),”

[5] = system: diamond back moth; test: Field trial against diamond back moth on cabbage; format: in vivo, Plutella xylostella
Experimental: as §1
The trial was carried out in the test filed of Shenyang Research Institute of Chemical industry Ltd. The trial crop is cabbage (Variety: Zhonggan NO 8.). The dosage of the compound 1 are 75, 105, 150 g a.i./hm^2 and comparative agent pyridalyl is 105 g a.i./hm^2. The agent was applied once on 13 Jun. 2011. The application tool is Shandongweishi WS-16P type backpack manual sprayer. Evenly spraying to whole cabbage which is in rosette stage was conducted. Diamond back moth is originated at the peak time. The plot area is 10 m^2, 3 replicates and randomized block arrangement were set. The amount of spray liquid is 750 L/hm^2. It was sunny with the highest temperature of 29° C., and the lowest of 17° C. on the day of the application of the spray. The methods of investigation and calculation are the same as Example 13.

[6] = system: housefly; test: Insecticidal activity against housefly (diet incorporation test); format: in vivo; conditions: Musca domestica, 72 h, 3rd instar larvae, read-out: Mortality of housefly (%)
Experimental: Diet Incorporation Tests: the test compound was dissolved with 90% acetone to obtain the mother liquor after weigh accurately with an electronic balance. The required concentration solution was got by diluting to the mother liquor with a certain concentration milk powder solution according to the designed doses in the experiment. Then, the diluted concentration solution was evenly put into the petri dishes with diameter of 6 cm inside which filter paper was placed by using a transferring-liquid gun ([…], solution each petri dish). Finally the 3rd instars of larvae were put into petri dishes with 10 each petri dish, and 3 replicates were set for each treatment. Then the insects were maintained in observation room (25° C., 60˜70% R.H.). Scores were conducted and mortalities were calculated after 72 h.

[7] = 75 g a.i./hm^2, 10% EC, 1 day after treatment
[8] = 75 g a.i./hm^2, 10% EC, 3 days after treatment
[9] = 75 g a.i./hm^2, 10% EC, 7 days after treatment
[10] = 105 g a.i./hm^2, 10% EC, 1 day after treatment
[11] = 105 g a.i./hm^2, 10% EC, 3 days after treatment
[12] = 105 g a.i./hm^2, 10% EC, 7 days after treatment
[13] = 150 g a.i./hm^2, 10% EC, 1 day after treatment
[14] = 150 g a.i./hm^2, 10% EC, 3 days after treatment
[15] = 150 g a.i./hm^2, 10% EC, 7 days after treatment

For `FC(F)(F)c1ccc(Oc2ccc(OCCCOc3c(Cl)cc(OCC=C(Cl)Cl)cc3Cl)cc2)nc1` [Compound 1], the “Control efficiency (%)” value [1, 7] was 63.18%, the “Control efficiency (%)” value [1, 8] was 86.14% and the “Control efficiency (%)” value [1, 9] was 80.51%. The “Control efficiency (%)” value ([1]; 75 g a.i./hm^2, 10% EC, 14 days after treatment) was 73.51%, the “Control efficiency (%)” value [1, 10] was 69.20% and the “Control efficiency (%)” value [1, 11] was 92.30%. For the same molecule, the “Control efficiency (%)” value [1, 12] was 86.19%, the “Control efficiency (%)” value ([1]; 105 g a.i./hm^2, 10% EC, 14 days after treatment) was 83.69% and the “Control efficiency (%)” value [1, 13] was 71.17%. For the same molecule, the “Control efficiency (%)” value [1, 14] was 94.09%, the “Control efficiency (%)” value [1, 15] was 90.45% and the “Control efficiency (%)” value ([1]; 150 g a.i./hm^2, 10% EC, 14 days after treatment) was 88.42%. For the same molecule, the mortality at 6.25 µg/mL ([2]; 6.25 mg/L) was 100%, the mortality at 25 µg/mL ([2]; 25 mg/L) was 100% and the mortality at 50 µg/mL ([2]; 50 mg/L) was 100%. For the same molecule, the “Control efficiency (%)” value [3, 7] was 40.4%, the “Control efficiency (%)” value ([3]; 75 g a.i./hm^2, 10% EC, 4 day after treatment) was 84.1% and the “Control efficiency (%)” value ([3]; 75 g a.i./hm^2, 10% EC, 7 day after treatment) was 86.7%. For the same molecule, the “Control efficiency (%)” value ([3]; 75 g a.i./hm^2, 10% EC, 12 days after treatment) was 81.2%, the “Control efficiency (%)” value [3, 10] was 44.0% and the “Control efficiency (%)” value ([3]; 105 g a.i./hm^2, 10% EC, 4 day after treatment) was 87.9%. For the same molecule, the “Control efficiency (%)” value ([3]; 105 g a.i./hm^2, 10% EC, 7 day after treatment) was 92.6%, the “Control efficiency (%)” value ([3]; 105 g a.i./hm^2, 10% EC, 12 days after treatment) was 85.0% and the “Control efficiency (%)” value [3, 13] was 45.2%. For the same molecule, the “Control efficiency (%)” value ([3]; 150 g a.i./hm^2, 10% EC, 4 day after treatment) was 89.6%, the “Control efficiency (%)” value ([3]; 150 g a.i./hm^2, 10% EC, 7 day after treatment) was 92.8% and the “Control efficiency (%)” value ([3]; 150 g a.i./hm^2, 10% EC, 12 days after treatment) was 85.4%. The mortality at 10 µg/mL ([4]; 10 mg/L) was 100%, the mortality at 100 µg/mL ([4]; 100 mg/L) was 100% and the “Control efficacy (%)” value [5, 7] was 86.0%. The “Control efficacy (%)” value [5, 8] was 98.7%, the “Control efficacy (%)” value [5, 9] was 97.6% and the “Control efficacy (%)” value [5, 10] was 93.4%. The “Control efficacy (%)” value [5, 11] was 97.0%, the “Control efficacy (%)” value [5, 12] was 97.8% and the “Control efficacy (%)” value [5, 13] was 90.4%. For the same molecule, the “Control efficacy (%)” value [5, 14] was 97.9%, the “Control efficacy (%)” value [5, 15] was 97.9% and the mortality at 10 µg/mL ([6]; 10 mg/L) was 66.7%. The mortality at 20 µg/mL ([6]; 20 mg/L) was 100%.

From patent US8969332B2, “Aryloxy dihalopropenyl ether compounds and uses thereof” (Sinochem Corporation, priority 2011, dated 2015)
